Laboratory results reported in US10183938B2, “Geminal substituted quinuclidine amide compounds as agonists of α-7 nicotonic acetylcholine receptors” (AXOVANT SCIENCES GMBH, priority 2014, dated 2019).
Counter-ions that a name gives are not always drawn. Like-named read-outs stand apart in the source and are kept apart here.

Assays:
[1] = biological target: human 5-HT3 serotonin receptors (Homo sapiens (Human), UniProt P46098); assay: [3H]BRL 43694 competition binding
[2] = biological target: human α7 nAChRs transiently expressed in Xenopus laevis oocytes (Homo sapiens (Human), UniProt P36544); assay: Oocyte electrophysiology screen (TEVC); format: cell-based; settings: 0.01 mM test compound, peak current relative to 0.2 mM ACh
Method in brief: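 Oocytes expressing human α7 were clamped at −80 mV by TEVC. After a 0.2 mM ACh control pulse, test compound was applied at 0.01 mM for 30 s. Agonist response is peak current as % of the ACh response, in triplicate.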

[3] = CHO cell membranes, [3H]BRL 43694, Cheng Prusoff, read-out: h-5HT3 Ki

Sequence of human α7 nAChRs transiently expressed in Xenopus laevis oocytes (P36544 23-502 limits assumed): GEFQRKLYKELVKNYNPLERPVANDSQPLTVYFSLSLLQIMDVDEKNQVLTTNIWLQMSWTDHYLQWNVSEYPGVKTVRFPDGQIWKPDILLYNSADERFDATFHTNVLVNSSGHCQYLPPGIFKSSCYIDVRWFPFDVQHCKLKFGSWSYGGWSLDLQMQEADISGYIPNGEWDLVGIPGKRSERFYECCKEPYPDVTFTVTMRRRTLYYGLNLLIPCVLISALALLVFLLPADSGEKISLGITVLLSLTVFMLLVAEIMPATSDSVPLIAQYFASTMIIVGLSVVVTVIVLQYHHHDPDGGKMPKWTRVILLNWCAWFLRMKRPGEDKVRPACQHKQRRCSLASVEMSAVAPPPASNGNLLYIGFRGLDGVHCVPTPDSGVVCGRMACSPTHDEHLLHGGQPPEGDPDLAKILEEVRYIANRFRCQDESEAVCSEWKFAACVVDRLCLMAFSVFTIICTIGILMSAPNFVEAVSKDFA
Sequence of human 5-HT3 serotonin receptors (P46098 24-478): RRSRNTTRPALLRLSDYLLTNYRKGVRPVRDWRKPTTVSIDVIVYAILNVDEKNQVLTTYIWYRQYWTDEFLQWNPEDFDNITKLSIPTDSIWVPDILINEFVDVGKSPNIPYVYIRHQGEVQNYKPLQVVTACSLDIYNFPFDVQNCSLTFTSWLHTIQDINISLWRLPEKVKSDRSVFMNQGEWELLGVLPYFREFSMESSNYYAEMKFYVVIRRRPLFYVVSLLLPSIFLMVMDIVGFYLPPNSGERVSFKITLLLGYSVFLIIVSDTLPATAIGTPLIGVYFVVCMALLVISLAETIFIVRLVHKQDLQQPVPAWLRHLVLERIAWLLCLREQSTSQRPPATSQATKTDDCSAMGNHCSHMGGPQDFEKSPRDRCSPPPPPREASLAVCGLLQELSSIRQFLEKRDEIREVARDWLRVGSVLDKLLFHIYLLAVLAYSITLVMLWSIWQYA

Compound: CC1(C)[C@H](NC(=O)c2cc3cc(C4CC4)ccc3s2)C2CCN1CC2 [(R)-19, (R)-5-cyclopropyl-N-(2,2-dimethylquinuclidin-3-yl)benzo[b]thiophene-2-carboxamide hydrochloride]
- Ki [1, 3]: 1600 nM
- % ACh @ 10 μM Oocyte [2]: 149 % ACh

Compound: CC1(C)[C@H](NC(=O)c2cc3cccnc3s2)C2CCN1CC2 [(R)-28, (R)—N-(2,2-dimethylquinuclidin-3-yl)thieno[2,3-b]pyridine-2-carboxamide hydrochloride]
- Ki [1, 3]: > 10000 nM
- % ACh @ 10 μM Oocyte [2]: 321 % ACh

Compound: CC1(C)[C@H](NC(=O)c2cc3ccsc3cn2)C2CCN1CC2 [(R)-43, (R)—N-(2,2-dimethylquinuclidin-3-yl)thieno[2,3-c]pyridine-5-carboxamide hydrochloride]
- Ki [1, 3]: 1500 nM
- % ACh @ 10 μM Oocyte [2]: 951 % ACh

Compound: O=C(N[C@@H]1C2CCN(CC2)C12CC2)c1ccc2sccc2c1 [(R)-83, (R)—N-(1′-azaspiro[cyclopropane-1,2′-bicyclo[2.2.2]octan]-3′-yl)benzo[b]thiophene-5-carboxamide hydrochloride]
- Ki [1, 3]: 2400 nM
- % ACh @ 10 μM Oocyte [2]: 558 % ACh

Compound: CC1(C)[C@H](NC(=O)c2cnc3occc3c2)C2CCN1CC2 [(R)-36, (R)—N-(2,2-dimethylquinuclidin-3-yl)furo[2,3-b]pyridine-5-carboxamide hydrochloride]
- Ki [1, 3]: > 10000 nM
- % ACh @ 10 μM Oocyte [2]: 1 % ACh

Compound: CC1(C)[C@H](NC(=O)c2cc3ccc(C(F)(F)F)cc3s2)C2CCN1CC2 [(R)-10, (R)—N-(2,2-dimethylquinuclidin-3-yl)-6-(trifluoromethyl)benzo[b]thiophene-2-carboxamide hydrochloride]
- Ki [1, 3]: > 10000 nM
- % ACh @ 10 μM Oocyte [2]: 1 % ACh

Compound: COc1cccc2cc(C(=O)N[C@@H]3C4CCN(CC4)C34CC4)sc12 [(R)-161, (R)-7-methoxy-N-(1′-azaspiro[cyclopropane-1,2′-bicyclo[2.2.2]octan]-3′-yl)benzo[b]thiophene-2-carboxamide hydrochloride]
- Ki [1, 3]: 660 nM
- % ACh @ 10 μM Oocyte [2]: 493 % ACh

Compound: CC1(C)[C@H](NC(=O)c2cc3ccc(S(C)(=O)=O)cc3s2)C2CCN1CC2 [(R)-48, (R)—N-(2,2-dimethylquinuclidin-3-yl)-6-(methylsulfonyl)benzo[b]thiophene-2-carboxamide hydrochloride]
- Ki [1, 3]: > 10000 nM
- % ACh @ 10 μM Oocyte [2]: 0 % ACh

Compound: O=C(NC1C2CCN(CC2)C12CC2)c1ccc2occc2c1 (single isomer, unassigned; enantiomer1) [59a, N-(1′-azaspiro[cyclopropane-1,2′-bicyclo[2.2.2]octan]-3′-yl)benzofuran-5-carboxamide-enantiomer1]
- Ki [1]: 6500 nM
- % ACh @ 10 μM Oocyte [2]: 823 % ACh

Compound: O=C(NC1C2CCN(CC2)C12CC2)c1cc2cc(F)ccc2s1 (single isomer, unassigned; enantiomer1) [64a, 5-fluoro-N-(1′-azaspiro[cyclopropane-1,2′-bicyclo[2.2.2]octan]-3′-yl)benzo[b]thiophene-2-carboxamide-enantiomer1]
- Ki [1]: 420 nM
- % ACh @ 10 μM Oocyte [2]: 511 % ACh

Compound: Cc1ccc2sc(C(=O)N[C@@H]3C4CCN(CC4)C3(C)C)cc2c1 [(R)-16, (R)—N-(2,2-dimethylquinuclidin-3-yl)-5-methylbenzo[b]thiophene-2-carboxamide hydrochloride]
- Ki [1, 3]: 2500 nM
- % ACh @ 10 μM Oocyte [2]: 74 % ACh

Compound: O=C(N[C@@H]1C2CCN(CC2)C12CC2)c1ccc2cc[nH]c2c1 [(R)-79, (R)—N-(1′-azaspiro[cyclopropane-1,2′-bicyclo[2.2.2]octan]-3′-yl)-1H-indole-6-carboxamide]
- Ki [1, 3]: 750 nM
- % ACh @ 10 μM Oocyte [2]: 758 % ACh

Compound: Cc1ccc2cc(C(=O)N[C@@H]3C4CCN(CC4)C34CC4)sc2c1F [(R)-106, (R)-7-fluoro-6-methyl-N-(1′-azaspiro[cyclopropane-1,2′-bicyclo[2.2.2]octan]-3′-yl)benzo[b]thiophene-2-carboxamide hydrochloride]
- Ki [1, 3]: > 10000 nM
- % ACh @ 10 μM Oocyte [2]: 572 % ACh

Compound: O=C(N[C@@H]1C2CCN(CC2)C12CC2)c1cc2ccc(Br)cc2s1 [(R)-101, (R)-6-bromo-N-(1′-azaspiro[cyclopropane-1,2′-bicyclo[2.2.2]octan]-3′-yl)benzo[b]thiophene-2-carboxamide hydrochloride]
- Ki [1, 3]: > 10000 nM
- % ACh @ 10 μM Oocyte [2]: 412 % ACh

Compound: Cn1cnc2cc(C(=O)N[C@@H]3C4CCN(CC4)C34CC4)ccc21 [(R)-95, (R)-1-methyl-N-(1′-azaspiro[cyclopropane-1,2′-bicyclo[2.2.2]octan]-3′-yl)-1H-benzo[d]imidazole-5-carboxamide hydrochloride]
- Ki [1, 3]: > 10000 nM
- % ACh @ 10 μM Oocyte [2]: 0 % ACh

Compound: O=C(N[C@@H]1C2CCN(CC2)C12CC2)c1cc2ccc(Cl)cc2o1 [(R)-163, (R)-6-chloro-N-(1′-azaspiro[cyclopropane-1,2′-bicyclo[2.2.2]octan]-3′-yl)benzofuran-2-carboxamide hydrochloride]
- Ki [1, 3]: 2000 nM
- % ACh @ 10 μM Oocyte [2]: 446 % ACh

Compound: Cc1csc2ccc(C(=O)N[C@@H]3C4CCN(CC4)C3(C)C)cc12 [(R)-24, (R)—N-(2,2-dimethylquinuclidin-3-yl)-3-methylbenzo[b]thiophene-5-carboxamide hydrochloride]
- Ki [1, 3]: 820 nM
- % ACh @ 10 μM Oocyte [2]: 240 % ACh

Compound: O=C(N[C@@H]1C2CCN(CC2)C12CC2)c1ccc2occ(Cl)c2c1 [(R)-94, (R)-3-chloro-N-(1′-azaspiro[cyclopropane-1,2′-bicyclo[2.2.2]octan]-3′-yl)benzofuran-5-carboxamide hydrochloride]
- Ki [1, 3]: 1600 nM
- % ACh @ 10 μM Oocyte [2]: 812 % ACh

Compound: O=C(NC1C2CCN(CC2)C12CC2)c1cc2cccc(C(F)(F)F)c2s1 (single isomer, unassigned; enantiomer1) [60a, N-(1′-azaspiro[cyclopropane-1,2′-bicyclo[2.2.2]octan]-3′-yl)-7-(trifluoromethyl)benzo[b]thiophene-2-carboxamide-enantiomer1]
- Ki [1, 3]: 1010 nM
- % ACh @ 10 μM Oocyte [2]: 501 % ACh

Compound: O=C(N[C@@H]1C2CCN(CC2)C12CC2)c1cc2ccoc2cn1 [(R)-75, (R)—N-(1′-azaspiro[cyclopropane-1,2′-bicyclo[2.2.2]octan]-3′-yl)furo[2,3-c]pyridine-5-carboxamide hydrochloride]
- Ki [1, 3]: 3300 nM
- % ACh @ 10 μM Oocyte [2]: 594 % ACh

Compound: CC1(C)[C@H](NC(=O)c2cc3ccc(Cl)c(Cl)c3s2)C2CCN1CC2 [(R)-109, (R)-6,7-dichloro-N-(2,2-dimethylquinuclidin-3-yl)benzo[b]thiophene-2-carboxamide hydrochloride]
- Ki [1, 3]: 4000 nM
- % ACh @ 10 μM Oocyte [2]: 432 % ACh

Compound: Cc1ccc2cc(C(=O)N[C@@H]3C4CCN(CC4)C34CC4)sc2c1Cl [(R)-156, (R)-7-chloro-6-methyl-N-(1′-azaspiro[cyclopropane-1,2′-bicyclo[2.2.2]octan]-3′-yl)benzo[b]thiophene-2-carboxamide hydrochloride]
- Ki [1, 3]: 300 nM
- % ACh @ 10 μM Oocyte [2]: 403 % ACh

Compound: O=C(N[C@@H]1C2CCN(CC2)C12CC2)c1cc2ccc(F)c(Cl)c2s1 [(R)-158, (R)-7-chloro-6-fluoro-N-(1′-azaspiro[cyclopropane-1,2′-bicyclo[2.2.2]octan]-3′-yl)benzo[b]thiophene-2-carboxamide hydrochloride]
- Ki [1, 3]: 370 nM
- % ACh @ 10 μM Oocyte [2]: 180 % ACh

Compound: CC1(C)[C@H](NC(=O)c2ccc3occc3c2)C2CCN1CC2 [(R)-6, (R)—N-(2,2-dimethylquinuclidin-3-yl)benzofuran-5-carboxamide hydrochloride]
- Ki [1, 3]: > 10000 nM
- % ACh @ 10 μM Oocyte [2]: 374 % ACh

Compound: O=C(NC1C2CCN(CC2)C12CC2)c1cc2ccc(F)cc2s1 (single isomer, unassigned; enantiomer1) [61a, 6-fluoro-N-(1′-azaspiro[cyclopropane-1,2′-bicyclo[2.2.2]octan]-3′-yl)benzo[b]thiophene-2-carboxamide-enantiomer1]
- Ki [1, 3]: 1500 nM
- % ACh @ 10 μM Oocyte [2]: 1493 % ACh

Compound: CC1(C)[C@H](NC(=O)c2cc3cc(Cl)c(Cl)cc3s2)C2CCN1CC2 [(R)-14, (R)-5,6-dichloro-N-(2,2-dimethylquinuclidin-3-yl)benzo[b]thiophene-2-carboxamide hydrochloride]
- Ki [1, 3]: > 10000 nM
- % ACh @ 10 μM Oocyte [2]: 3 % ACh

Compound: CC1(C)[C@H](NC(=O)c2cc3cc(C(F)(F)F)ccc3s2)C2CCN1CC2 [(R)-17, (R)—N-(2,2-dimethylquinuclidin-3-yl)-5-(trifluoromethyl)benzo[b]thiophene-2-carboxamide hydrochloride]
- Ki [1, 3]: > 10000 nM
- % ACh @ 10 μM Oocyte [2]: 0 % ACh

Compound: Cc1csc2cc(C(=O)N[C@@H]3C4CCN(CC4)C34CC4)ccc12 [(R)-78, (R)-3-methyl-N-(1′-azaspiro[cyclopropane-1,2′-bicyclo[2.2.2]octan]-3′-yl)benzo[b]thiophene-6-carboxamide hydrochloride]
- Ki [1, 3]: 2100 nM
- % ACh @ 10 μM Oocyte [2]: 31 % ACh

Compound: O=C(NC1C2CCN(CC2)C12CC2)c1ccc2ccsc2c1 (single isomer, unassigned; enantiomer1) [58a, N-(1′-azaspiro[cyclopropane-1,2′-bicyclo[2.2.2]octan]-3′-yl)benzo[b]thiophene-6-carboxamide-enantiomer1]
- Ki [1, 3]: 910 nM
- % ACh @ 10 μM Oocyte [2]: 235 % ACh

Compound: O=C(N[C@@H]1C2CCN(CC2)C12CC2)c1cc2ccc(C3CCOCC3)cc2s1 [(R)-105, (R)—N-(1′-azaspiro[cyclopropane-1,2′-bicyclo[2.2.2]octan]-3′-yl)-6-(tetrahydro-2H-pyran-4-yl)benzo[b]thiophene-2-carboxamide hydrochloride]
- Ki [1, 3]: > 10000 nM
- % ACh @ 10 μM Oocyte [2]: 2 % ACh

Compound: O=C(N[C@@H]1C2CCN(CC2)C12CC2)c1cc2cccc(-c3nccs3)c2s1 [(R)-181, (R)—N-(1′-azaspiro[cyclopropane-1,2′-bicyclo[2.2.2]octan]-3′-yl)-7-(thiazol-2-yl)benzo[b]thiophene-2-carboxamide hydrochloride]
- Ki [1, 3]: 83 nM
